Like-named read-outs stand apart in the source and are kept apart here.
Legend:
[1] = Oral pharmacokinetics (plasma, brain, CSF); conditions: rat, per os, 10 mg/kg
Description: Plasma, brain, and CSF samples were analyzed at various time points over a 24 hour period.

[2] = target: T1, NMDAR2D (Homo sapiens, UniProt O15399); assay: [3H]MK-801 binding, NMDAR2D expressing HEK cell membranes; format: biochemical; conditions: 50 μM glutamate; for EC50: read-out: NMDAR2D B: log EC50 (converted)
T1 construct: expressed in transfected cells; host or cells: HEK cells (membrane extract)
Description: (§1) Assays were conducted as described by Moskal et al., “GLYX-13: a monoclonal antibody-derived peptide that acts as an N-methyl-D-aspartate receptor modulator,” Neuropharmacology, 49, 1077-87, 2005. These studies were designed to determine if the test compounds act to facilitate NMDAR activation in NMDAR2A, NMDAR2B, NMDAR2C or NMDAR2D expressing HEK cell membranes as measured by increases in [^3H]MK-801 binding.
(§2) In the assay, 300 μg of NMDAR expressing HEK cell membrane extract protein was preincubated for 15 minutes at 25° C. in the presence of saturating concentrations of glutamate (50 μM) and varying concentrations of test compound (1×10^−15M−1×10^−7M), or 1 mM glycine. Following the addition of 0.3 μCi of [^3H]MK-801 (22.5 Ci/mmol), reactions were again incubated for 15 minutes at 25° C. (nonequilibrium conditions). Bound and free [^3H]MK-801 were separated via rapid filtration using a Brandel apparatus.
(§3) In analyzing the data, the DPM (disintegrations per minute) of [^3H]MK-801 remaining on the filter were measured for each concentration of test compound or for 1 mM glycine. The DPM values for each concentration of a ligand (N=2) were averaged. The baseline value was determined from the best fit curve of the DPM values modeled using the GraphPad program and the log(agonist) vs. response(three parameters) algorithm was then subtracted from all points in the dataset. The % maximal [^3H]MK-801 binding was then calculated relative to that of 1 mM glycine: all baseline subtracted DPM values were divided by the average value for 1 mM glycine. The EC50 and % maximal activity were then obtained from the best fit curve of the % maximal [^3H]MK-801 binding data modelled using the GraphPad program and the log(agonist) vs. response(three parameters) algorithm.
(§4) The tables below summarize the results for the wild type NMDAR agonists NMDAR2A, NMDAR2B, NMDAR2C, and NMDAR2D, and whether the compound is not an agonist (−), is an agonist (+), or is a strong agonist (++), where column A is based on the % maximal [^3H]MK-801 binding relative to 1 mM glycine (−=0; <100%=+; and >100%=++); and column B is based on log EC50 values (0=−; ≥1×10^−9M (e.g., −8)=+; and <1×10^−9M (e.g., −10)=++).

[3] = IV pharmacokinetics; format: in vivo, Sprague Dawley rats; conditions: rat, 2 mg/kg, normal saline (compounds marked * in 1% NMP and 99% normal saline); for Vd: read-out: Vss
Excerpt: The table below summarizes the results of the IV pharmacokinetics.

[4] = test system: positive (hedonic) 50-kHz ultrasonic vocalizations (USVs); assay: Positive emotional learning (PEL) test; format: in vivo, rats; conditions: rat, PO, 1 h after administration
Description: Experiments were conducted as described in Burgdorf et al., “The effect of selective breeding for differential rates of 50-kHz ultrasonic vocalizations on emotional behavior in rats,” Devel. Psychobiol., 51:34-46 (2009). Rat 50-kHz ultrasonic vocalization (hedonic USVs) is a validated model for the study of positive affective state and is best elicited by rough-and-tumble play.
The PEL assay measures the acquisition of positive (hedonic) 50-kHz ultrasonic vocalizations (USVs) to a social stimulus, heterospecific rough and tumble play stimulation. Heterospecific rough-and-tumble play stimulation was administered by the experimenter's right hand. One hour after administration of test compound or vehicle negative control (0.5% sodium carboxymethyl cellulose in 0.9% sterile saline vehicle), animals received 3 min of heterospecific rough-and-tumble play that consisted of alternating 15 sec blocks of heterospecific play and 15 sec of no-stimulation. High frequency ultrasonic vocalizations (USVs) were recorded and analyzed by sonogram with Avasoft SASlab Pro (Germany) as previously described by Burgdorf et al., “Positive emotional learning is regulated in the medial prefrontal cortex by GluN2B-containing NMDA receptors,” Neuroscience, 192:515-523 (2011). Frequency modulated 50-kHz US V s that occurred during each of the no-stimulation periods were quantified to measure PEL. Animals were not habituated to play stimulation before testing. Positive emotional learning was measured during the conditioned stimulus (CS) trials preceding the tickle unconditioned stimulus (UCS) trials. Animals received 15 second trials consisting of 6 CS and 6 UCS trials each (3 min total).
The table below summarizes the findings. As each experiment includes its own vehicle group, an example (typical) vehicle score is shown. Max effect (mean number of 50 kHz USVs per 15 seconds) is reported as ∧: <6.0; *: 6.0-7.6; **: 7.7-10; ***: 10.1-20.

[5] = target: T2, NMDAR2B (Homo sapiens, UniProt Q13224); assay: [3H]MK-801 binding, NMDAR2B expressing HEK cell membranes; format: biochemical; conditions: 50 μM glutamate; for EC50: read-out: NMDAR2B B: log EC50 (converted); for Emax: read-out: NMDAR2B A: % maximal [3H]MK-801 binding relative to 1 mM glycine
T2 construct: expressed in transfected cells; host or cells: HEK cells (membrane extract)
Description: as §1, §2, §3, §4

[6] = target: T3, NMDAR2A (Homo sapiens, UniProt Q12879); assay: [3H]MK-801 binding, NMDAR2A expressing HEK cell membranes; format: biochemical; conditions: 50 μM glutamate; for Emax: read-out: NMDAR2A A: % maximal [3H]MK-801 binding relative to 1 mM glycine; for EC50: read-out: NMDAR2A B: log EC50 (converted)
T3 construct: expressed in transfected cells; host or cells: HEK cells (membrane extract)
Description: as §1, §2, §3, §4

[7] = target: T4, NMDAR2C (Homo sapiens, UniProt Q14957); assay: [3H]MK-801 binding, NMDAR2C expressing HEK cell membranes; format: biochemical; conditions: 50 μM glutamate; for EC50: read-out: NMDAR2C B: log EC50 (converted)
T4 construct: expressed in transfected cells; host or cells: HEK cells (membrane extract)
Description: as §1, §2, §3, §4

[8] = target: T5, NMDAR2D (Homo sapiens, UniProt O15399+Q05586); assay: [3H]MK-801 binding, NMDAR2D expressing HEK cell membranes; format: biochemical; conditions: 50 μM glutamate, read-out: NMDAR2D B: log EC50 (converted)
T5 construct: expressed in transfected cells; host or cells: HEK cells (membrane extract)
Description: as §1, §2, §3, §4

[9] = normal saline (compounds marked * in 1% NMP and 99% normal saline)
[10] = plasma, normal saline (compounds marked * in 1% NMP and 99% normal saline)
[11] = Sprague Dawley, plasma, po, Tmax, normal saline (compounds marked * in 1% NMP and 99% normal saline)
[12] = Sprague Dawley, in vivo, iv, read-out: C0

T4 sequence (Q14957 20-1233, species assumed, other chains not shown): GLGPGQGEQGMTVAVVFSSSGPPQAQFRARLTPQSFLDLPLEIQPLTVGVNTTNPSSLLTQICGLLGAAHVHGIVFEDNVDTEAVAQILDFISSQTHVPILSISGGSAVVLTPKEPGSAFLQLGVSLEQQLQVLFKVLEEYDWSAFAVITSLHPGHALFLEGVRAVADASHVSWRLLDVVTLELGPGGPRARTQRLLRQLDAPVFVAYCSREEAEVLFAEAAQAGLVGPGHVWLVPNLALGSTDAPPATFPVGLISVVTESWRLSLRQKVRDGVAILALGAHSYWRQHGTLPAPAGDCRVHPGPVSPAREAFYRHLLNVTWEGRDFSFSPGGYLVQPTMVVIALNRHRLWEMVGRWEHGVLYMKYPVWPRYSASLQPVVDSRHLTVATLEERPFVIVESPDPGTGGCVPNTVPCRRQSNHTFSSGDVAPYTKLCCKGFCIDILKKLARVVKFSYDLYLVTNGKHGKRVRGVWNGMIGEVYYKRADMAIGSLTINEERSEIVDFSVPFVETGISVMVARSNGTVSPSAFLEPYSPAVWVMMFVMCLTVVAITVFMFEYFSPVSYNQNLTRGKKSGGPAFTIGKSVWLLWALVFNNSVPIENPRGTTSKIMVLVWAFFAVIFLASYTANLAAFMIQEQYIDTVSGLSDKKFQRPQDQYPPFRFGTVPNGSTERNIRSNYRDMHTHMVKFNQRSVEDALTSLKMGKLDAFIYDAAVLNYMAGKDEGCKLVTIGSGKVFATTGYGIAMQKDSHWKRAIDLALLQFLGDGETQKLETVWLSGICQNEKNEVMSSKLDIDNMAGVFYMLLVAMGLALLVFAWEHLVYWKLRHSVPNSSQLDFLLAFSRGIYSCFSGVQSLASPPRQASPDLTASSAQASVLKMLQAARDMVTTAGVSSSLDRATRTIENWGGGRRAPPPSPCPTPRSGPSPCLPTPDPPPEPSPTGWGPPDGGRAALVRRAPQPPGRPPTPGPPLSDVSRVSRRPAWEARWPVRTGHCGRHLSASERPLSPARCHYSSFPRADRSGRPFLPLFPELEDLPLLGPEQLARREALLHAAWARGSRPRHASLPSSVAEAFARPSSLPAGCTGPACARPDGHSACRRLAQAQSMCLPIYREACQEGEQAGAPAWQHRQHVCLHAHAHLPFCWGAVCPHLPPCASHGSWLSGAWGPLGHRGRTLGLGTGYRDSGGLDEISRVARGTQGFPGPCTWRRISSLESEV
T2 sequence (Q13224 27-1484, species assumed, other chains not shown): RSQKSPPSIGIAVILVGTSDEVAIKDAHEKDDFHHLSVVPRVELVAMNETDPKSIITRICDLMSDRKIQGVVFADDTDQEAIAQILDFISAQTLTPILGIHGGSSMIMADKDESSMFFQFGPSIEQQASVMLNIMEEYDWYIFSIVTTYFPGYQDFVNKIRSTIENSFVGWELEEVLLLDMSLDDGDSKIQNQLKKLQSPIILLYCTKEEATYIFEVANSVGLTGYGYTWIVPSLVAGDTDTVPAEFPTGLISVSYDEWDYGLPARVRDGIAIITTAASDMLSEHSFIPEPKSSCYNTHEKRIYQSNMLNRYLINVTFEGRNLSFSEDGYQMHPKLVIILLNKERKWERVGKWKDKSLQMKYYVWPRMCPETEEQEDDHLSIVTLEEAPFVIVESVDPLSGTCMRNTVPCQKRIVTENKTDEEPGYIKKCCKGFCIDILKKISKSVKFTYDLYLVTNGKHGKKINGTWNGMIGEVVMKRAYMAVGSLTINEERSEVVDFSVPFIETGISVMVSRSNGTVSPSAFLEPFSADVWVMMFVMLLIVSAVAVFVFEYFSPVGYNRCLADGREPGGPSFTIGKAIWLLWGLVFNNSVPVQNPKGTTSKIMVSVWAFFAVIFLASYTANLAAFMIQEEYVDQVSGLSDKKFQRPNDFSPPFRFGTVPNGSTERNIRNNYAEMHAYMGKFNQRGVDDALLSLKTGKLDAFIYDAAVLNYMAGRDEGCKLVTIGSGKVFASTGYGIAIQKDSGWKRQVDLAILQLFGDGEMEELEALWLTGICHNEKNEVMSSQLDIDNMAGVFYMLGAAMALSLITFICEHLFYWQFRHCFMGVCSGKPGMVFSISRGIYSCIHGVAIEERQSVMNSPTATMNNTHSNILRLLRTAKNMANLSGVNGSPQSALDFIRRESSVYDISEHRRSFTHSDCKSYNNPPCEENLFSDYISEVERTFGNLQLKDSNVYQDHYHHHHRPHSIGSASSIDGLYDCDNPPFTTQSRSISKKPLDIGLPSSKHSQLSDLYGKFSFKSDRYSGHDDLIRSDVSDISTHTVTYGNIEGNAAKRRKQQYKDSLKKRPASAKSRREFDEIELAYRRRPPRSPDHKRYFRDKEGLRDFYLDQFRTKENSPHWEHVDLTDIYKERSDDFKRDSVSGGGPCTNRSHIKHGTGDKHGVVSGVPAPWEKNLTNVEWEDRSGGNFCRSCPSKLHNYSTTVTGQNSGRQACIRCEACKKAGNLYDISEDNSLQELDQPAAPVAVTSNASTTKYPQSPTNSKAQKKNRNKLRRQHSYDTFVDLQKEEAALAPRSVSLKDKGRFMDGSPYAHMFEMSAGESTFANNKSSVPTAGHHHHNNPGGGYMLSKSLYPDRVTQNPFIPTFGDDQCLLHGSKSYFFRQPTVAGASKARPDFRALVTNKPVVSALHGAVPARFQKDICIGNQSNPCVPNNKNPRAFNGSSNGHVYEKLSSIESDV
T1 sequence (O15399 28-1336, species assumed, other chains not shown): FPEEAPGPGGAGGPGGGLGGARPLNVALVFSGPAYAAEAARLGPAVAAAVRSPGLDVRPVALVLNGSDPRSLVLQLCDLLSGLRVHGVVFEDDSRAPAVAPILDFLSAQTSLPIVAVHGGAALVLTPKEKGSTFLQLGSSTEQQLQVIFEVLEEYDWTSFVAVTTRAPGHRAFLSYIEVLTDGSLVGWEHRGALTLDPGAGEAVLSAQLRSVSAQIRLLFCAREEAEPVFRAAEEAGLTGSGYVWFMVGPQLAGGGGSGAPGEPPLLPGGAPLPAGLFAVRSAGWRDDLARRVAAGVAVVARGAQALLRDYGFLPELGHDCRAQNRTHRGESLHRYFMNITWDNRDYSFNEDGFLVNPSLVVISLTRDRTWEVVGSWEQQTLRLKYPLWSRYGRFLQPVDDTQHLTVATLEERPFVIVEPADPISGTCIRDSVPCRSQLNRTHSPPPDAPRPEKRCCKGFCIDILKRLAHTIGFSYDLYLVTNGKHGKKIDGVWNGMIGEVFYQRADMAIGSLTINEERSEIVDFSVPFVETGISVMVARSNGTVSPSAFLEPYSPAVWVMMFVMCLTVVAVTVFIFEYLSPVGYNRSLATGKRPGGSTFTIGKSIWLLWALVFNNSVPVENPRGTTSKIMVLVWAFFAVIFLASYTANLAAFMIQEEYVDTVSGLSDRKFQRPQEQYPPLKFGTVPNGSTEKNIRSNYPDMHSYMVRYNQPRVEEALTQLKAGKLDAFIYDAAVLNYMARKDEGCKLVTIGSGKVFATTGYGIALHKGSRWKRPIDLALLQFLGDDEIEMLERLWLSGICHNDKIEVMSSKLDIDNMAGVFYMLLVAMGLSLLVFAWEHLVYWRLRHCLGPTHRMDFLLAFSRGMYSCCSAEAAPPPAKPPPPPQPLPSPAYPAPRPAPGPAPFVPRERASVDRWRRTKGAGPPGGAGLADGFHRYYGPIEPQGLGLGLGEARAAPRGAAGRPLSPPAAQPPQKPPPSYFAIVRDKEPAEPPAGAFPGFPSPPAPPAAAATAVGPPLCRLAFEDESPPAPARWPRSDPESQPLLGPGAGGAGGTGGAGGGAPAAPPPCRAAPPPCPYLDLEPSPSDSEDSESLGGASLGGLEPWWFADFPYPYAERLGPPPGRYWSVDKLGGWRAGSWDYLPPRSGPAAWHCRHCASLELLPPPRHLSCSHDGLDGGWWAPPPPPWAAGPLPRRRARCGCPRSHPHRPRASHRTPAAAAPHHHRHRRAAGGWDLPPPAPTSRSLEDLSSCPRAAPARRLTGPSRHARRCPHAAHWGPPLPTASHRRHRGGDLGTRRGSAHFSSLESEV
T5 sequence (O15399 28-1336, species assumed, other chains not shown): as above

| CSF Cmax [1] | EC50 [5] | Emax [6] | Emax [5] | Compound | Cmax [1, 10] | NMDAR2D A: % maximal [3H]MK-801 binding relative to 1 mM glycine [2] | NMDAR2B A: % maximal [3H]MK-801 binding relative to 1 mM glycine [5] | NMDAR2A A: % maximal [3H]MK-801 binding relative to 1 mM glycine [6] | NMDAR2C A: % maximal [3H]MK-801 binding relative to 1 mM glycine [7] | EC50 [7] | Max Effect (mean number of 50 kHz USVs per 15 seconds) ([4]; dose .1 mg/kg) | EC50 [6] | also measured |
| --- | --- | --- | --- | --- | --- | --- | --- | --- | --- | --- | --- | --- | --- |
| 81.6 ng/mL | < 1 nM | < 100% | – | C[C@@H](O)[C@H](N)C(=O)N1CCNC2(CNC2=O)C1 (single isomer, unassigned) [EK-2, 8-(L-Threonyl)-2,5,8-Triazaspiro[3.5]Nonan-1-One] | 1910.5 ng/mL | – | + (<100%=+) | – | – | – | * (*: 6.0-7.6) | > 1 nM | Tmax [1, 9]: 60 min |
| 56.9 ng/mL | < 1 nM | 0% | < 100% | C[C@@H](O)[C@H](N)C(=O)N1CCN(Cc2ccccc2)C2(CNC2=O)C1 (single isomer, unassigned) [EL-1, 8-(L-Threonyl)-5-Benzyl-2,5,8-Triazaspiro[3.5]Nonan-1-One] | – | – | – | – | – | – | *** (***: 10.1-20) | – | bioavailability ([1]; Sprague Dawley, plasma, po, % F): 90%; AUC(0-t) ([1]; Sprague Dawley, plasma, po, AUClast, normal saline (compounds marked * in 1% NMP and 99% normal saline)): 19400 ng·h/mL; Cmax ([1]; Sprague Dawley, plasma, po, Cmax, normal saline (compounds marked * in 1% NMP and 99% normal saline)): 4980 ng/mL; Tmax [1, 11]: 30 min; Brain Cmax [1]: 143 ng/mL; AUC(0-t) ([3]; Sprague Dawley, in vivo, iv): 4320 ng·h/mL; clearance ([3]; Sprague Dawley, in vivo, iv): 7.35 mL/min/kg; half-life ([3]; Sprague Dawley, in vivo, iv): 406 min; C0 [3, 12]: 3250 ng/mL; Vd ([3]; Sprague Dawley, in vivo, iv): 2.12 L/kg |
| – | < 1 nM | – | – | CN1CCN(C(=O)OC(C)(C)C)CC12CN(CC(N)=O)C2=O (stereo not drawn) [ER-118] | – | ++ (>100%=++) | + (<100%=+) | − (−=0) | − (−=0) | – | – | – | EC50 [2]: < 1 nM |

Second part, the compound before the results:

| Compound | CSF Cmax [1] | EC50 [5] | Emax [6] | Emax [5] | Cmax [1, 10] | NMDAR2D A: % maximal [3H]MK-801 binding relative to 1 mM glycine [2] | NMDAR2B A: % maximal [3H]MK-801 binding relative to 1 mM glycine [5] | NMDAR2A A: % maximal [3H]MK-801 binding relative to 1 mM glycine [6] | NMDAR2C A: % maximal [3H]MK-801 binding relative to 1 mM glycine [7] | EC50 [7] | Max Effect (mean number of 50 kHz USVs per 15 seconds) ([4]; dose .1 mg/kg) | EC50 [6] | also measured |
| --- | --- | --- | --- | --- | --- | --- | --- | --- | --- | --- | --- | --- | --- |
| O=C1NCC12CNCCN2Cc1ccccc1 (single isomer, unassigned) [ED-2, 5-Benzyl-2,5,8-Triazaspiro[3.5]Nonan-1-One] | 178.3 ng/mL | < 1 nM | – | – | 1563.1 ng/mL | + (<100%=+) | + (<100%=+) | − (−=0) | + (<100%=+) | < 1 nM | – | – | % F [1]: 54%; Brain Cmax [1]: 478.5 ng/mL; AUClast [1, 9]: 2178.53 ng·h/mL; Tmax [1, 9]: 15 min; EC50 [2]: < 1 nM; AUClast [3]: 806.5 ng·h/mL; C0 [3]: 1793.2 ng/mL; Cl [3]: 40.6 mL/min/kg; T1/2 [3]: 32.4 min; Vss [3]: 1.45 L/kg; Max Effect (mean number of 50 kHz USVs per 15 seconds) ([4]; dose .001-1 mg/kg): *** (***: 10.1-20) |
| CC(C)(C)OC(=O)N1CCN(C(=O)OC(C)(C)C)C2(CNC2=O)C1 (single isomer, unassigned) [EE-2, Di-Tert-Butyl 1-Oxo-2,5,8-Triazaspiro[3.5]Nonane-5,8-Dicarboxylate] | – | < 1 nM | – | – | – | − (−=0) | + (<100%=+) | − (−=0) | + (<100%=+) | < 1 nM | – | – | – |
| CN1CCN(Cc2ccccc2)C2(CNC2=O)C1 (single isomer, unassigned) [EG-2, 5-Benzyl-8-Methyl-2,5,8-Triazaspiro[3.5]Nonan-1-One] | – | – | – | – | 3526.63 ng/mL | + (<100%=+) | − (−=0) | − (−=0) | + (<100%=+) | < 1 nM | – | – | Tmax [1, 11]: 15 min; % F [1]: 100%; AUClast [1, 9]: 3082.39 ng·h/mL; EC50 [8]: < 1 nM; AUC(0-t) ([3]; Sprague Dawley, in vivo, iv): 400 ng·h/mL; clearance ([3]; Sprague Dawley, in vivo, iv): 83.3 mL/min/kg; half-life ([3]; Sprague Dawley, in vivo, iv): 28.8 min; C0 [3, 12]: 1100 ng/mL; Vd ([3]; Sprague Dawley, in vivo, iv): 1.87 L/kg |
| C[C@@H](O)[C@H](N)C(=O)N1CCN(C(=O)OC(C)(C)C)CC12CNC2=O (stereo partly drawn) [EC-2, Tert-Butyl 5-(L-Threonyl)-1-Oxo-2,5,8-Triazaspiro[3.5]Nonane-8-Carboxylate] | – | < 1 nM | < 100% | > 100% | – | – | – | – | – | – | ** (**: 7.7-10) | > 1 nM | – |
| CN1CCNC2(CNC2=O)C1 (stereo not drawn) [EH-1, 8-Methyl-2,5,8-Triazaspiro[3.5]Nonan-1-One] | – | < 1 nM | < 100% | < 100% | – | + (<100%=+) | – | – | − (−=0) | – | – | < 1 nM | EC50 [8]: < 1 nM |
| CN1CCNC2(CNC2=O)C1 (stereo not drawn) [EH-2, 8-Methyl-2,5,8-Triazaspiro[3.5]Nonan-1-One] | – | < 1 nM | – | – | – | − (−=0) | + (<100%=+) | + (<100%=+) | − (−=0) | – | – | < 1 nM | – |

Reference: US20230131402A1, “SPIRO-LACTAM NMDA RECEPTOR MODULATORS AND USES THEREOF” (Aptinyx Inc., priority 2016, published 2023)
